For twelve molecules, EC50 and CC50 results are on record in patent US10206902B2, “Mono- or di-substituted indoles as dengue viral replication inhibitors” (priority 2014, dated 2019).

For series [1], the system named is DENV-2 strain 16681. Description: Tetravalent RT-qPCR assay Protocol A, serotype 2. To be noted: Dengue virus, DENV2, 72 h, RT-qPCR serotype 2 16681, Vero cells, day 3. It is filed as cell-based. How it is done: The antiviral activity of the compounds of the invention was tested against DENV-1 strain TC974#666 (NCPV), DENV-2 strain 16681, DENV-3 strain H87 (NCPV) and DENV-4 strains H241 (NCPV) and EDEN (SG/06K2270DK1/2005; GenBank accession number QG398256) in a RT-qPCR assay. Therefore, Vero cells were infected with either DENV-1, or -2, or -3, or -4 in the presence or absence of test compounds. At day 3 post-infection, the cells were lysed and cell lysates were used to prepare cDNA of both a viral target (the 3′UTR of DENV; table 2) and a cellular reference gene (β-actin, table 2). Subsequently, a duplex real time PCR was performed on a Lightcycler480 instrument. The generated Cp value is inversely proportional to the amount of RNA expression of these targets. Inhibition of DENV replication by a test compound result in a shift of Cp's for the 3′UTR gene. On the other hand, if a test compound is toxic to the cells, a similar effect on β-actin expression will be observed. The comparative ΔΔCp method is used to calculate EC50, which is based on the relative gene expression of the target gene (3′UTR) normalized with the cellular housekeeping gene (β-actin). In addition, CC50 values were determined based on the Cp values acquired for the housekeeping gene β-actin.
The culture medium consisted of minimal essential medium supplemented with 2% of heat-inactivated fetal calf serum, 0.04% gentamycin (50 mg/mL) and 2 mM of L-glutamine. Vero cells, obtained from ECACC, were suspended in culture medium and 75 μL/well was added in 96-well plates (10000 cells/well), which already contain the antiviral compounds. Typically, these plates contain a 4-fold serial dilution of 9 dilution steps of the test compound at 200 times the final concentration in 100% DMSO (500 nL; final concentration range: 25 μM-0.00038 μM). In addition, each plate contains wells which are assigned as virus controls (containing cells and virus in the absence of compound) and cell controls (containing cells in the absence of virus and compound). Once the cells were added in the plates, the plates were incubated in a fully humidified incubator (37° C., 5% CO2) until the next day. Then, DENV-1 strain TC974#666, DENV-2 strain 16681, DENV-3 strain H87 or DENV-4 strains H241 or EDEN were added. […] In parallel, 25 μL of culture medium was added to the cell controls. Next, the plates were incubated for 3 days in a fully humidified incubator (37° C., 5% CO2). After 3 days, the supernatant was removed from the wells and the cells were washed twice with ice-cold PBS (˜100 μL). The cell pellets within the 96-well plates were stored at −80° C. for at least 1 day. Next, RNA was extracted using the Cells-to-CT™ lysis kit, according to the manufacture's guideline (Applied Biosystems). The cell lysates can be stored at −80° C. or immediately used in the reverse transcription step. In preparation of the reverse transcription step, mix A (table 3A) was prepared and 7.57 μL/well was dispensed in a 96-well plate. After addition of 5 μL of the cell lysates, a five minute denaturation step at 75° C. was performed (table 3B). Afterwards, 7.43 μL of mix B was added (table 3C) and the reverse transcription step was initiated (table 3D) to generate cDNA.
Finally, a RT-qPCR mix was prepared, mix C (table 4A), dispensed in 96-well LightCycler qPCR plates to which 3 μL of cDNA was added and the qPCR was performed according to the conditions in table 4B on a LightCycler 480. Using the LightCycler software and an in-house LIMS system, dose response curves for each compound were calculated and the half maximal effective concentration (EC50) and the half maximal cytotoxic concentration (CO50) were determined (Tables 6-9).

Series [2] is described as follows: in vitro. The format is cell-based. As to conditions: African green monkey, CC50. How it is done:
Potential cytotoxic effects of the compounds were evaluated in uninfected Vero cells. Cells were seeded at 4×10^4 cells/well in a 96-well plate in the presence of two-, three- or five-fold serial dilutions (ranging from 50 μg/mL-0.0038 μg/mL, 50 μg/mL-0.0076 μg/mL, and 50 μg/mL-0.00013 μg/mL, respectively) of compound and incubated for 4 to 7 days. Culture medium was discarded and 100 μL 3-(4,5-dimethylthiazol-2-yl)-5-(3-carboxymethoxyphenyl)-2-(4-sulfophenyl)-2H-tetrazolium/phenazinemethosulfate (MTS/PMS; Promega, Leiden, The Netherlands) in PBS was added to each well. Following a 2-hour incubation period at 37° C., the optical density was determined at 498 nm. Cytotoxic activity was calculated using the following formula: % cell viability=100×(ODCompound/ODCC), where ODcompound and ODCC correspond to the optical density at 498 nm of the uninfected cell cultures treated with compound and that of uninfected, untreated cell cultures, respectively. The 50% cytotoxic concentration (i.e., the concentration that reduces the total cell number with 50%; CC50) was calculated using linear interpolation (Tables 7 and 8).

For `COc1cc(NC(C(=O)c2c[nH]c3cc(F)ccc23)c2ccc(F)cc2OC)cc(OCCO)c1` (single isomer, unassigned) [Compound 1A, 1-(6-fluoro-1H-indol-3-yl)-2-(4-fluoro-2-methoxyphenyl)-2-((3-(2-hydroxyethoxy)-5-methoxyphenyl)amino)ethanone], a half-maximal effect in series [1] (EC50) was put at 0.0032 µM. In series [2], this molecule had a CC50 of 13 µM.

In series [1], `COc1cc(NC(C(=O)c2c[nH]c3c(C)c(F)ccc23)c2ccc(F)cc2OC)cc(OCCO)c1` (single isomer, unassigned) [Compound 2B, 2-(4-fluoro-2-methoxyphenyl)-1-(6-fluoro-7-methyl-1H-indol-3-yl)-2-((3-(2-hydroxyethoxy)-5-methoxyphenyl)amino)ethanone] displayed an EC50 of 0.0023 µM. This molecule also had a CC50 in series [2] of 9.2 µM.

In series [1], `COc1cc(NC(C(=O)c2c[nH]c3c(C)c(Cl)ccc23)c2ccc(F)cc2OC)cc(OCCO)c1` (single isomer, unassigned) [Compound 3A, 1-(6-chloro-7-methyl-1H-indol-3-yl)-2-(4-fluoro-2-methoxyphenyl)-2-((3-(2-hydroxyethoxy)-5-methoxyphenyl)amino)ethanone] showed an EC50 of 0.00079 µM. Moreover, in series [2], half-maximal cytotoxicity (CC50) was put at 7.6 µM.

In the case of `COc1cc(NC(C(=O)c2c[nH]c3cc(Cl)ccc23)c2ccc(F)cc2OC)cc(OCCO)c1` (single isomer, unassigned) [Compound 4A, 1-(6-chloro-1H-indol-3-yl)-2-(4-fluoro-2-methoxyphenyl)-2-((3-(2-hydroxyethoxy)-5-methoxyphenyl)amino)ethanone], a half-maximal effect in series [1] (EC50) was put at 0.0016 µM. Also, the CC50 in series [2] was found to be 9.7 µM.

`COc1cc(NC(C(=O)c2c[nH]c3c(F)c(F)ccc23)c2ccc(F)cc2OC)cc(OCCO)c1` (single isomer, unassigned) [Compound 5B, 1-(6,7-difluoro-1H-indol-3-yl)-2-(4-fluoro-2-methoxyphenyl)-2-((3-(2-hydroxyethoxy)-5-methoxyphenyl)amino)ethanone]: it took 0.0036 µM to reach a half-maximal effect in series [1] (EC50). This molecule also registered a CC50 in series [2] of 12 µM.

With `COc1cc(NC(C(=O)c2c[nH]c3cc(OC)c(C)cc23)c2ccc(F)cc2OC)cc(OCCO)c1` (single isomer, unassigned) [Compound 6A, 2-(4-fluoro-2-methoxyphenyl)-2-((3-(2-hydroxyethoxy)-5-methoxyphenyl)amino)-1-(6-methoxy-5-methyl-1H-indol-3-yl)ethanone], the EC50 in series [1] amounted to 0.0017 µM. For the same molecule, in series [2], it took 9.7 µM to reach half-maximal cytotoxicity (CC50).

`COc1cc(NC(C(=O)c2c[nH]c3cc(OC)c(F)cc23)c2ccc(F)cc2OC)cc(OCCO)c1` (single isomer, unassigned) [Compound 7A, 2-(4-fluoro-2-methoxyphenyl)-1-(5-fluoro-6-methoxy-1H-indol-3-yl)-2-((3-(2-hydroxyethoxy)-5-methoxyphenyl)amino)ethanone] displayed an EC50 in series [1] of 0.0034 µM. In series [2], this molecule displayed a CC50 of 16 µM.

On to `COc1cc(NC(C(=O)c2c[nH]c3c(Cl)c(OC)ccc23)c2ccc(F)cc2OC)cc(OCCO)c1` (single isomer, unassigned) [Compound 8A, 1-(7-chloro-6-methoxy-1H-indol-3-yl)-2-(4-fluoro-2-methoxyphenyl)-2-((3-(2-hydroxyethoxy)-5-methoxyphenyl)amino)ethanone], for which, in series [1], it took 0.0009 µM to reach a half-maximal effect (EC50). The same molecule showed a CC50 in series [2] of 9.6 µM.

`COc1cc(NC(C(=O)c2c[nH]c3c(C)cc(F)cc23)c2ccc(F)cc2OC)cc(OCCO)c1` (single isomer, unassigned) [Compound 9B, 2-(4-fluoro-2-methoxyphenyl)-1-(5-fluoro-7-methyl-1H-indol-3-yl)-2-((3-(2-hydroxyethoxy)-5-methoxyphenyl)amino)ethanone]: the midpoint of the response in series [1], the EC50, lay at 0.0032 µM. The molecule further had a CC50 in series [2] of 8.8 µM.

As for `COc1cc(NC(C(=O)c2c[nH]c3cc(F)c(F)cc23)c2ccc(F)cc2OC)cc(OCCO)c1` (single isomer, unassigned) [Compound 10B, 1-(5,6-difluoro-1H-indol-3-yl)-2-(4-fluoro-2-methoxy-phenyl)-2-((3-(2-hydroxyethoxy)-5-methoxyphenyl)amino)ethanone], a half-maximal effect in series [1] (EC50) was put at 0.0032 µM. The molecule also came in with a CC50 in series [2] of 7.3 µM.

In series [1], `COc1cc(NC(C(=O)c2c[nH]c3c(C)c(OC)ccc23)c2ccc(F)cc2OC)cc(OCCO)c1` (single isomer, unassigned) [Compound 11A, 2-(4-fluoro-2-methoxyphenyl)-2-((3-(2-hydroxyethoxy)-5-methoxyphenyl)amino)-1-(6-methoxy-7-methyl-1H-indol-3-yl)ethanone] yielded an EC50 of 0.00084 µM. For the same molecule, the CC50 in series [2] is 11 µM.

In series [1], `COc1cc(NC(C(=O)c2c[nH]c3c(F)cc(C)cc23)c2ccc(F)cc2OC)cc(OCCO)c1` (single isomer, unassigned) [Compound 12B, 2-(4-fluoro-2-methoxyphenyl)-1-(7-fluoro-5-methyl-1H-indol-3-yl)-2-((3-(2-hydroxyethoxy)-5-methoxyphenyl)amino)ethanone] yielded an EC50 of 0.0081 µM. In series [2], this molecule came in with a CC50 of 9.4 µM.
